The text below walks through data of a melting point compilation (Tetko et al.; mined from patent text by program, amines drawn as free bases though some values may be those of a salt).

`COc1ccc(CCC(=O)c2c(O)cc(OC)cc2OC)cc1`: the melting point was determined as 110 °C.
As for `Cc1ccc(S(=O)(=O)OCC(C)C2CCC3C4CC=C5CC(O)CC(O)C5(C)C4CCC23C)cc1` (stereo not given), the melting point lay in the range of 91 to 99 °C.
Take `Nc1ccc(CCNC(=O)Nc2ccc(Nc3ccccc3)cc2)cc1`: the melting point is above 260 °C.
`CCCCCCCCc1cc2c(s1)NC(=O)CN=C2c1ccccc1Cl` gave a melting point of 131 to 133 °C.
In turn, `CC(C)c1cccc(C(C)C)c1NC(=O)CN1CCN(CCCSc2nc3ccccc3s2)CC1` returned a melting point of 113 to 115 °C.
On to `CCCCCCCCCCCCC(O)CC#CCCCC(=O)O` (stereo not given), for which the melting point lay in the range of 80.5 to 81 °C.
The molecule `CCOC(CNC(=O)Nc1ccc(-n2cncn2)cc1)OCC` came in with a melting point of 139 to 140 °C.
In the case of `NC(=O)Nc1ccc(/C=C/C(=O)O)cc1` it was above 350 °C.
`CC(O)C(C)N=[N+]([O-])c1ccc(O)cc1` (stereo not given) yielded a melting point of 124 to 125 °C.
Under `CC(C)(C)C(=O)COC(=O)C1(C(=O)OCc2ccccc2)CCCN(C(=O)OCC(Cl)(Cl)Cl)C1` (stereo not given) stands 114 °C; under `CC(C)c1cccc(C(C)C)c1NC(=O)N(Cc1ccc(N(C)C)cc1)c1ccc(F)cc1`, 124 to 125 °C.
Turning to `C#Cc1cnn2c(C(F)(F)F)cc(-c3ccc(C(F)(F)F)cc3)nc12`, the melting point was determined as 138 °C.
In the case of `CC(C)CCC1(CCC(C)C)c2cc(Cl)ccc2-c2ccc(Cl)cc21`, the melting point lay within 116 to 118 °C.
In the case of `Cc1nn(-c2cc(N)c(Cl)cc2F)c(Cl)c1Br`, the melting point was 113 to 116 °C.
The molecule `CCC(=O)N[C@@H](C)C(=O)N[C@@H](C)C(=O)NC1CCCCC1` came in with a melting point of 299 to 300 °C.
The molecule `O=C1c2cccc3cc([N+](=O)[O-])cc(c23)C(=O)N1OCc1ccccc1` returned a melting point of 239 to 241 °C.
`Cc1c[nH]c(=O)n(C(=O)c2ccccc2)c1=O`: the melting point was in the range of 178 to 180 °C.
Take `CC(C)c1cccc(C(C)C)c1NC(=O)NCC1(c2ccc3ccccc3c2)CCCC1`: the melting point was in the range of 152 to 154 °C.
As for `O=C(c1ccc(OCCn2ccnc2)cc1)N1CCOCC1`, the melting point was 109 to 111 °C.
The molecule `Cc1cn(C)c2c1N(C(=O)CCl)c1ccccc1NC2=O` had a melting point of 267 to 269 °C.
`O=C1NC(=O)C(c2ccc3cc(-c4ccc(O)c(C56CC7CC(CC(C7)C5)C6)c4)ccc3c2)S1` (stereo not given) registered a melting point of 312 to 314 °C.
On to `CC(C)N(C(=O)c1ccc(OCCCCCOc2ccc(C(N)=NO)cc2)cc1O)C(C)C`, for which the melting point is 195 to 197 °C.
Turning to `CN(C)C(=O)N1CCC(c2nn(-c3ccc(C(F)(F)F)cc3)c3ccccc23)CC1`, the melting point fell in the range of 117 to 119 °C.
Under `CC(Cl)C(=O)c1ccc(OCCCN2C(=O)c3ccccc3C2=O)cc1` (stereo not given) stands 137 to 138 °C; under `O=C(CCl)NC(C(=O)O)c1cscn1` (stereo not given), 193 to 195 °C.
Turning to `COc1ccc2c(C(=O)c3ccc(OC4CCCCC4N4CCOCC4)cc3)c(-c3ccc(OCCN4CCCC4)cc3)sc2c1` (stereo not given), the melting point lay in the range of 50 to 57 °C.
`CCOC(OCC)P(=O)(O)CCCN(C)Cc1ccc(Cl)cc1`: the melting point worked out at 170 °C.
In turn, `CC(=O)O[C@@H]1OCC[C@@H]1NC(=O)[C@H](CC(C)C)NC(=O)c1ccc(N)cc1` yielded a melting point of 148 to 150 °C.
The molecule `CCOCC(=O)NC1CCN(C[C@@]23C[C@@H](c4ccccc42)c2ccc(Cl)cc23)CC1` displayed a melting point of 68 to 70 °C.
For the molecule `Clc1cc(Br)c2ccccc2c1Cl`, the melting point was in the range of 84 to 86 °C.
Consider `O=C(N=NC=C(Cl)Cl)c1ccccc1`, for which the melting point lay in the range of 50 to 51 °C.
For `CCOC(=O)c1cc(C)c(C(=O)OCC)n1C`, the melting point is 48 to 48.5 °C.
`CCc1c(CCC(=O)O)ccc2c1OCO2` yielded a melting point of 127 to 128 °C.
Take `O=C(O)c1cccc(N2C(=O)c3ccc([N+](=O)[O-])cc3C2=O)c1`: the melting point lay within 368 to 370 °C.
Turning to `CC(C)[C@H](NC(=O)Cc1cc(F)cc(F)c1)C(=O)N[C@@H]1C(=O)Nc2ccccc2S[C@@H]1c1ccccc1`, the melting point was 110 to 115 °C.
For `COc1ccc(C(O)CN)cc1OC` (stereo not given), the melting point lay in the range of 80 to 81 °C.
Regarding `CCOC(=O)c1sc(C)nc1O`, the melting point stood at 104 °C.
In the case of `O=C(N1CCNc2ccccc2C1)n1ccnc1` it was 98 to 101 °C.
In the case of `CC#CCOc1cc(C=O)ccc1OC`, the melting point lay within 81 to 83 °C.
In the case of `CCOC(=O)C(=Cc1cccc([N+](=O)[O-])c1)C(C)=O` it was 103 to 106 °C; in that of `CCOC(=O)NNc1n[nH]c2cc(Cl)ccc12`, 210 to 211 °C.
The molecule `CN1c2ccccc2-n2cc(Cc3cccnc3)c(=O)c3cccc1c32` returned a melting point of 96.8 to 97.6 °C.
Take `Cc1ccc(S(=O)(=O)n2c(-c3cn(C)c4ccc(C=O)cc34)cc3cccnc32)cc1`: the melting point was in the range of 188 to 189 °C.
In turn, `CC(=O)OC1C(OC(=O)c2ccccc2)C(COC(=O)c2ccccc2)OC1n1cc(F)c(=O)[nH]c1=O` (stereo not given) yielded a melting point of 96 to 98 °C.
Molecule `CCOC(=O)c1c(O)c2ccc(C)nc2[nH]c1=O` yielded a melting point of 190 to 193 °C.
With `CCCOc1cc(-c2c(C(=O)OCC)c(Cn3cncn3)nc3cc(OC)c(OC)cc23)ccc1OC`, the melting point was 127 to 128 °C.
In the case of `CCCCN(CCCC)CCCCC(=O)c1ccc2c(c1)Cc1cc(C(=O)CCCCN(CCCC)CCCC)ccc1-2` it was 48 to 50 °C.
Molecule `COc1ccc(CNc2ncnc(Cl)c2N)cc1` gave a melting point of 187 to 188 °C.
`O=C1NC(=O)C2(CCOc3ccc(F)cc32)S1` (stereo not given): the melting point lay in the range of 147 to 149 °C.
In turn, `CC1(O/N=C(\C(=O)O)c2csc(N)n2)CCCCC1` registered a melting point of 203 to 204 °C.
The molecule `O=c1[nH]c2cc(Br)sc2[nH]c1=O` displayed a melting point above 300 °C.
Regarding `CSc1ccc2nc(N)c(C(N)=O)cc2c1`, the melting point lay in the range of 229 to 242 °C.
In the case of `COC(=O)C(O)c1ccc([N+](=O)[O-])cc1` (stereo not given) it was 56 to 58 °C.
Under `CC(C)=CCc1c(C)cc(O)cc1C` stands 64 to 65 °C; under `CC(C)C(=O)CNC(=O)c1ccc(F)cc1`, 107 to 108 °C; under `CC(C)(C)OC(=O)NCC12CN(c3c(F)cc4c(=O)c(C(=O)O)cn(C5CC5)c4c3Cl)CC1CCO2` (stereo not given), 111 to 113 °C.
Take `C[C@H](O)c1nnc(-c2ccc3occ(-c4ccc(S(C)(=O)=O)cc4)c3c2)o1`: the melting point was in the range of 175 to 176 °C.
`CCCCN(CC)c1nc(C)[nH]c2c(-c3ccc(Cl)cc3Cl)nc(C)c1-2` gave a melting point of 94 to 95 °C.
`CCC(=O)OCC(=O)C1(OC(C)=O)CCC2C3CC(C)C4=CC(=O)CCC4(C)C3C(O)CC21C` (stereo not given) gave a melting point of 99 to 103 °C.
`O=C(CSCc1cc(Br)cc2[nH]c(=O)c(=O)[nH]c12)Nc1ccccc1` showed a melting point above 250 °C.
Regarding `Cc1ccc(S(=O)(=O)N2CC[C@@H](C(C#N)(c3ccccc3)c3ccccc3)C2)cc1`, the melting point lay within 165 to 178 °C.
As to `COC1=CC2=CCC3C(CCC4(C)C(C5=NC(OCc6ccccc6)OC5)=CCC34)C2(C)CC1` (stereo not given), the melting point lay within 115 to 125 °C.
Molecule `COc1ccc(Cl)c(Oc2c(COCC(O)CO)nc(N3CCOCC3)nc2NS(=O)(=O)c2ccc(C(C)C)cn2)c1` (racemic) yielded a melting point of 116 °C.
Consider `CN1C(=O)C2(CCN(CCCC(=O)c3ccc(F)cc3)CC2)c2ccccc21`, for which the melting point lay within 95 to 96.5 °C.
In the case of `Nc1ccc(S(=O)(=O)C(F)(F)C(F)Cl)cc1Cl` (stereo not given) it was 98 to 99 °C; in that of `COc1ccc(C(=O)Nc2cccnc2)cc1NC(=S)Nc1cccc(C(=O)O)c1`, 191 to 192 °C; in that of `CC1COc2c(F)c(F)c([N+](=O)[O-])c3c(=O)[nH]c(=O)n1c23` (stereo not given), 286 to 288 °C.
Regarding `CS(=O)(=O)c1cccc(Nc2cc(-c3ccccc3OCc3ccccc3)ncn2)c1`, the melting point lay within 199 to 205 °C.
As to `Cc1nc(C#Cc2cncc(CO)c2)cs1`, the melting point was in the range of 98 to 99 °C.
In turn, `CN(CC1CO1)S(=O)(=O)C(F)(F)C(F)(F)C(F)(F)C(F)(F)S(=O)(=O)N(C)CC1CO1` (stereo not given) had a melting point of 77 to 79 °C.
Under `COCCN1CCC(O)(c2cc(F)cc(F)c2)C1` (single isomer, unassigned; (-)) stands 130 to 131 °C; under `CCn1cncc1/C=C/c1cn(-c2ccccc2)nc1OCc1ccc(OCc2nc(-c3ccc(CC(=O)O)cc3)oc2C)c(OC)c1`, 149 to 150 °C.
`Cn1c(C(O)CO)cnc1[N+](=O)[O-]` (stereo not given) had a melting point of 119 to 121 °C.
In the case of `Cc1ccc2[nH]c(=O)c(C#N)c(N3CCN(C(=O)c4cccs4)CC3)c2c1`, the melting point stood at 269 °C.
As to `COC1=NC2C=C(C(=O)NCC3CC3)C(NC(=O)c3cc(C(F)(F)F)nn3-c3ncccc3Cl)=C(Cl)C2S1` (stereo not given), the melting point was in the range of 199 to 201 °C.
Under `CCOC(=O)[C@H]1CC[C@@H](c2ccccc2)N1C(=O)CNC(=O)Nc1cccc(C)c1` (racemic) stands 115 °C.
In the case of `CC(Cn1c(=S)[nH]c2ccccc2c1=O)N1CCC(C(=O)c2ccc(F)cc2)CC1` (stereo not given), the melting point amounted to 161 °C.
In the case of `CC(C)(C)OC(=O)CCc1ccc(-c2nc(=O)c3ccccc3s2)nc1` it was 160 to 161 °C; in that of `CC(=O)Nc1nsnc1-c1c(Cl)cccc1Cl`, 180 to 185 °C.
`COc1nc(NN)c2c(OC)c(OC)cc(Cl)c2n1` registered a melting point of 166 to 168 °C.
Turning to `O=C(O)C1CC(c2ccco2)=NN1C(=O)CCS` (stereo not given), the melting point lay in the range of 121 to 123 °C.
`CNC(=S)NC1CCCc2cc(C)cnc21` (stereo not given) came in with a melting point of 113 °C.
As for `CCOC(=NC(=O)OC)NC(=O)Nc1ccc(Cl)cc1Cl`, the melting point lay within 92 to 93 °C.
In turn, `COc1cc(-n2c(C#N)c3n(c2=O)CCCC3)c(F)cc1Cl` displayed a melting point of 173 to 175 °C.
On to `Cc1cc2nc(-c3cccnc3N)n(-c3ccc(CC(=O)Nc4ccc5ncccc5c4)cc3)c2nc1-c1cccnc1`, for which the melting point lay in the range of 176 to 178 °C.
The molecule `FC(F)Sc1nnc(-c2cccs2)s1` gave a melting point of 63 to 64 °C.
In turn, `COc1ccc(Cl)cc1C(=O)N(C)CCc1ccc(CCC(=O)O)cc1` had a melting point of 152 to 153 °C.
`O=C(O)CCC(O)c1ccc(-c2ccccc2)c(F)c1` (stereo not given) came in with a melting point of 133 to 135 °C.
For `CCOCCOc1cc(-n2nc(C)c(Cl)c2C)c(F)cc1C#N`, the melting point turned out to be 86 °C.
The molecule `CCCc1cc(=O)oc2c(C=O)c(O)cc(O)c12` came in with a melting point of 236 to 237 °C.
